Data from PMC4587093 (Biochimica et biophysica acta, 2015).

How the values were obtained:
CYP1C1 [1] = target: T1, CYP1C1 (Danio rerio, UniProt A0PJ31); assay type: cell-based
T1 sequence (A0PJ31 1-523): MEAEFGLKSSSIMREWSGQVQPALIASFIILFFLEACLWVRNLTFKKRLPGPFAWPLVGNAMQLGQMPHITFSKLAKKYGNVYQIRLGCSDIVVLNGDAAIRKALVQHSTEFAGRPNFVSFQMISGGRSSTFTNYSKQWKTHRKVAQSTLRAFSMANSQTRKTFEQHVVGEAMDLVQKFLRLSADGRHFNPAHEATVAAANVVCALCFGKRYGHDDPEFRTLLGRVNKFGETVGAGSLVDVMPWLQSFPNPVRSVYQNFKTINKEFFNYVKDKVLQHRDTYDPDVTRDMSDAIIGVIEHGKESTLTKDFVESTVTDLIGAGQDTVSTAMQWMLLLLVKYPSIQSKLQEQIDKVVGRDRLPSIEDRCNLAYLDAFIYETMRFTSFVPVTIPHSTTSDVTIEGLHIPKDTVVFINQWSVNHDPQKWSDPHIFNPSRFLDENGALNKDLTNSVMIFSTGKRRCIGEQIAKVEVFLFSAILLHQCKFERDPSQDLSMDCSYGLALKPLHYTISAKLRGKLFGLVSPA

CYP1D1 = target: T2, CYP1D1 (Danio rerio, UniProt A0ACM8Q602); assay type: biochemical
T2 sequence (A0ACM8Q602 1-512): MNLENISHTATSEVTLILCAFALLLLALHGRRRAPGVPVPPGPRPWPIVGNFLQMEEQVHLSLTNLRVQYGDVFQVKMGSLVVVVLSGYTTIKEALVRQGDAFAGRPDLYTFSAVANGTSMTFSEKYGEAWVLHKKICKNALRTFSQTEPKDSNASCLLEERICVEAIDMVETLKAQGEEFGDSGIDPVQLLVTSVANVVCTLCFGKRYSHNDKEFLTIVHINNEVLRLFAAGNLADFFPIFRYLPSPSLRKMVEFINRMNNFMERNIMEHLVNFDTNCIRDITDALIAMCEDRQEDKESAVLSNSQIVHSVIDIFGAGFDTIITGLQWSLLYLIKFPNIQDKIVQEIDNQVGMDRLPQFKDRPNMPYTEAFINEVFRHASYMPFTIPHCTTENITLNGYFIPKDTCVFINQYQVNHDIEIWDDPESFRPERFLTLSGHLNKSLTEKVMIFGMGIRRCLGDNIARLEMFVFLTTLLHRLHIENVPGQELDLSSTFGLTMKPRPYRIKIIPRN

CYP1C2 = target: T3, CYP1C2 (Danio rerio, UniProt A0AC58HLV5); assay type: biochemical
T3 sequence (A0AC58HLV5 1-514): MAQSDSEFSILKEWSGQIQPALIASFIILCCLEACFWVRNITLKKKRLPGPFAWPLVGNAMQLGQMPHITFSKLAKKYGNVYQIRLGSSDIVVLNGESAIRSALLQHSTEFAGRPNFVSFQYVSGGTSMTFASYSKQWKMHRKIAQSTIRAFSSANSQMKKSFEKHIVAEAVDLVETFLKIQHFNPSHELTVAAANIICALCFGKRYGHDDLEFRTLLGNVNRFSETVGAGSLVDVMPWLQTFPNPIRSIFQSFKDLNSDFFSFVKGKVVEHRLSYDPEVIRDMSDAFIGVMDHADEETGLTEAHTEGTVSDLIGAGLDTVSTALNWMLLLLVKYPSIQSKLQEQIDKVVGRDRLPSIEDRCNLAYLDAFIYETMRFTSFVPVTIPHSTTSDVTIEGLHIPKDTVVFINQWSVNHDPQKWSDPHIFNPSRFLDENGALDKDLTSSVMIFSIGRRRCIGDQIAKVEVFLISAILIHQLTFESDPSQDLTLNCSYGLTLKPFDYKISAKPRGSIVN
T3 sequence (P16603 2-691 partner): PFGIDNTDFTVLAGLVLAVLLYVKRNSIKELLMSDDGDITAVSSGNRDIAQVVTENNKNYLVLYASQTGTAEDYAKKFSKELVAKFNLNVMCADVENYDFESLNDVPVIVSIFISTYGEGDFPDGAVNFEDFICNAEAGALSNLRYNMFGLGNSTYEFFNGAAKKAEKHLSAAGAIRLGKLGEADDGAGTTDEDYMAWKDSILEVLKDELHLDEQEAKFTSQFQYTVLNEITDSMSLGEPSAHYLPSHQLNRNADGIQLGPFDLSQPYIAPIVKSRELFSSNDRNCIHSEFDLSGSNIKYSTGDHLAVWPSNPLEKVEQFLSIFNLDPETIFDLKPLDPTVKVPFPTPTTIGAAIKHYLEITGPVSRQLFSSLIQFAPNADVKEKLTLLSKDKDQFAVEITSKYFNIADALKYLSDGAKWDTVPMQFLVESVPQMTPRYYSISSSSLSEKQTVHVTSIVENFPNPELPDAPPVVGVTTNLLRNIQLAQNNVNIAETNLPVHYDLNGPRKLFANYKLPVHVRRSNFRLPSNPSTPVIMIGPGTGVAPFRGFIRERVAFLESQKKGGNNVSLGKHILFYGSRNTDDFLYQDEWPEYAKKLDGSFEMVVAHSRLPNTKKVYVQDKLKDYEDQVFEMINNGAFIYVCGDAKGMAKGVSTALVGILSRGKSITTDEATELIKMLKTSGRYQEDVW

CYP1C1 [2] = target: T1, CYP1C1; assay type: biochemical
CYP1A = target: T4, CYP1A (Danio rerio, UniProt A0A8M1PCF4); experiment: O-deethylation rate; assay type: cell-based
T4 sequence (A0A8M1PCF4 1-519): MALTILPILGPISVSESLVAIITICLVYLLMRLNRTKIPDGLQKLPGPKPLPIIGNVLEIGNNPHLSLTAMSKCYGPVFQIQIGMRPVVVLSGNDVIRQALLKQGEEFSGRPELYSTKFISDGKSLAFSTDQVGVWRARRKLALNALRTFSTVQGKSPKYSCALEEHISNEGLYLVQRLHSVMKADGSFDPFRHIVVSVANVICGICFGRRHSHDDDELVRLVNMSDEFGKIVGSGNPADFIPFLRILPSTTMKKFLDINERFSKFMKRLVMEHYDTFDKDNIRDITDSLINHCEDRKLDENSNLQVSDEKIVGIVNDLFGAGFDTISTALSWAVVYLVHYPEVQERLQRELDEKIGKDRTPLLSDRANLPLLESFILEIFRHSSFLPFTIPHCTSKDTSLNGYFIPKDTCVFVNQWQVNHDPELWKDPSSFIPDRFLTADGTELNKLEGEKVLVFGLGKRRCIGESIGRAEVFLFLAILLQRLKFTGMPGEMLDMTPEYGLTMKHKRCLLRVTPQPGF

CYP1C1 [3] = target: T1, CYP1C1; experiment: kcat for O-demethylation; assay type: cell-based
Km for O-deethylation = substrate: CCOc1ccc2nc3ccc(=O)cc-3oc2c1; experiment: Km for O-deethylation; assay type: biochemical, Danio rerio; details: heme; NADPH

CCOc1ccc2c(C(F)(F)F)cc(=O)oc2c1 [EFC, 7-ethoxy-4-trifluoromethyl-coumarin]
kcat (mol substrate oxidized/mol P450/min) ^a / EFC ^c, ^d (CYP1C1 [1]): 1.51 ± 0.14 mol substrate oxidized/mol P450/min

c1ccc2c(c1)cc1ccc3cccc4ccc2c1c34 [BaP, benzo[a]pyrene]
Ki (CYP1D1): 12000 nM | Ki (CYP1C2): 200 nM | Ki (CYP1C1 [2]): 60 nM

CCOc1ccc2nc3ccc(=O)cc-3oc2c1 [ER, 7-ethoxyresorufin]
CYP expressed via pYES/DEST52 ^a / 1A (CYP1A): 89.3 ± 1.9 pmol min^−1 mg^−1 microsomal protein

COc1ccc2nc3ccc(=O)cc-3oc2c1 [MR, 7-methoxyresorufin]
kcat (mol substrate oxidized/mol P450/min) ^b / MR (CYP1C1 [3]): 4.9 ± 0.6 mol substrate oxidized/mol P450/min

B1: CYP1C1 (Danio rerio) (protein)
chain: T1 sequence (A0PJ31 1-523)
Km (Km for O-deethylation): 0.085 ± 0.005 µM

B2: CYP1C2 (Danio rerio) (protein)
chain: T3 sequence (A0AC58HLV5 1-514)
Km (Km for O-deethylation): 0.11 ± 0.01 µM
